Results from patent US8703961B2, “Thiazole derivatives for the treatment of diseases such as cancer” (Merck Patent GmbH, priority 2009, dated 2014).

Tests used:
Assay in all cases: filter binding kinase assay
Format in all cases: biochemical
AKT2 = target: T1, AKT2 (Homo sapiens, UniProt P31751); conditions: derived from % inhibition at 1 μM
T1 construct: purchased
Procedure, shortened: (§1)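 Radioactivity retained on P81 phosphocellulose filters is the read-out. Before the reaction begins, test substance sits with kinase and substrate for 5 minutes at room temperature. The ATP solution added is 5, 20 or 50 […] according to the kinase, and acid quench ends the reaction.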

IKBKE = target: T2, IKBKE (Homo sapiens, UniProt Q14164); conditions: derived from % inhibition at 1 μM
T2 construct: purchased
T2 sequence (Q14164 1-716): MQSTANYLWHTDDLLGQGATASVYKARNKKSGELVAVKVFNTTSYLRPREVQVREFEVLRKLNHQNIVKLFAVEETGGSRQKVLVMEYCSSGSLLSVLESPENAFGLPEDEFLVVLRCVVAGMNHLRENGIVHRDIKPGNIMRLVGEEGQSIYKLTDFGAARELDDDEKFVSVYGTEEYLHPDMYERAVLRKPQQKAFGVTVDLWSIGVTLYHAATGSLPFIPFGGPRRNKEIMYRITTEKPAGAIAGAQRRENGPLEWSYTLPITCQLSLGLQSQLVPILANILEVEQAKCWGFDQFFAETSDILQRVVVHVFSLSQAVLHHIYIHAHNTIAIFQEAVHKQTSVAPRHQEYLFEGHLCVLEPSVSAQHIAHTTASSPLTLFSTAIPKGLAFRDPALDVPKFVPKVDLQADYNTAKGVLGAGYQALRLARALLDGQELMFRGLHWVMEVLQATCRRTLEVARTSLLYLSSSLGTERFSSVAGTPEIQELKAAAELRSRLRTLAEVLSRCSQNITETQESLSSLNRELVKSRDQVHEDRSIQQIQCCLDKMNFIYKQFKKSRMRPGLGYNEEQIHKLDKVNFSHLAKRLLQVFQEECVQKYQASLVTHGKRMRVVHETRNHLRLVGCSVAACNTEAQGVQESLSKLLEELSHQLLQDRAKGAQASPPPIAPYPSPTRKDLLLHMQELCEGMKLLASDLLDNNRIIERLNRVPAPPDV
Procedure, shortened: as §1

INSR = target: T3, INSR (Homo sapiens, UniProt P06213); conditions: derived from % inhibition at 1 μM
T3 construct: purchased
T3 sequence (P06213 28-1382, species assumed): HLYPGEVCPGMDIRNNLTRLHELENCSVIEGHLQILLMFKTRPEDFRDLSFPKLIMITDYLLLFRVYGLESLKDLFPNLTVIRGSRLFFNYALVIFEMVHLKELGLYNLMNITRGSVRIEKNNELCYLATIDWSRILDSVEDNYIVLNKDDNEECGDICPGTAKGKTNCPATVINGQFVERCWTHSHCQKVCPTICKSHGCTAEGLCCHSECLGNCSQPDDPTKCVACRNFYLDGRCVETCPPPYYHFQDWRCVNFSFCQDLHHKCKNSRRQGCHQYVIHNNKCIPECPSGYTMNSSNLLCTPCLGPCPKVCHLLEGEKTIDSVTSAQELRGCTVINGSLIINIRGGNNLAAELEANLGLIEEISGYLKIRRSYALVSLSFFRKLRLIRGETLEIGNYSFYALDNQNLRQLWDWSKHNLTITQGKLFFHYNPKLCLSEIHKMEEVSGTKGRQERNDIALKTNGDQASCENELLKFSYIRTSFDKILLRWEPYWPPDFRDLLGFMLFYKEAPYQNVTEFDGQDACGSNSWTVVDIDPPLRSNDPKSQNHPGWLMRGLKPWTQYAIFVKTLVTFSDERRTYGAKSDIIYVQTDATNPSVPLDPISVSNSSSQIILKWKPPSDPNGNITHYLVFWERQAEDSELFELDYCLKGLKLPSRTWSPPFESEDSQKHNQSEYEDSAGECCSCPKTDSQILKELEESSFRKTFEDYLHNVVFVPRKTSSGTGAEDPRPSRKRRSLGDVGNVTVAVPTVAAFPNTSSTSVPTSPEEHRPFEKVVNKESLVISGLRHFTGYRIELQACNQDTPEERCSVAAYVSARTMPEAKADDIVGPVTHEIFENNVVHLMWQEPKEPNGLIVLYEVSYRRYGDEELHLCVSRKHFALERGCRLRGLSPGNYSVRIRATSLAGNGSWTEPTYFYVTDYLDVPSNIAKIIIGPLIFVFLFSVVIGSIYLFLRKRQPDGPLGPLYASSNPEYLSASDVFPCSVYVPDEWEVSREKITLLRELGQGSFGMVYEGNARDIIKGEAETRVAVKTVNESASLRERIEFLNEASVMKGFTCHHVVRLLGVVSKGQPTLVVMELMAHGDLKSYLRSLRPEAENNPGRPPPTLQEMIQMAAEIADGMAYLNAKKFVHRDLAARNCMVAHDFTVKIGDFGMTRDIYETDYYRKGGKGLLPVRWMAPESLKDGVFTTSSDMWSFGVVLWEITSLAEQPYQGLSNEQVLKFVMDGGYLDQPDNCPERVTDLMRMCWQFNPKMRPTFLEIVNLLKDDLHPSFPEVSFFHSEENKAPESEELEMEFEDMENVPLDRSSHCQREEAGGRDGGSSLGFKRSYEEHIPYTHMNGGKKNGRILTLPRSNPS
Procedure, shortened: as §1

IRAK4 = target: T4, IRAK4 (Homo sapiens, UniProt Q9NWZ3); conditions: derived from % inhibition at 1 μM
T4 construct: purchased
T4 sequence (Q9NWZ3 1-460): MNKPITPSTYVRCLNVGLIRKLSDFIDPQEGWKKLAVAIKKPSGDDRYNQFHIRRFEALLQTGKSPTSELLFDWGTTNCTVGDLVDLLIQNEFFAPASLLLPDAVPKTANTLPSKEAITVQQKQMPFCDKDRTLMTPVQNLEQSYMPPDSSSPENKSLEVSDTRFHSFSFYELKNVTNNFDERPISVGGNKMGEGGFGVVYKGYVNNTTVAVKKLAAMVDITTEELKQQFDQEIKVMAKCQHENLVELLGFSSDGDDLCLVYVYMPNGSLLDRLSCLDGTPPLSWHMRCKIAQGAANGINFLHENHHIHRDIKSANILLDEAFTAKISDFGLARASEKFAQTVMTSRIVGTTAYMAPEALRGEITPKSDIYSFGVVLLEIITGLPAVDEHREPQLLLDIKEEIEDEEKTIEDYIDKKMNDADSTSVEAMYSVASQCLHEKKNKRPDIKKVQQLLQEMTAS
Procedure, shortened: as §1

MAPK14 = target: T5, MAPK14 (Homo sapiens, UniProt Q16539); conditions: derived from % inhibition at 1 μM
T5 construct: purchased
T5 sequence (Q16539 whole entry, species assumed): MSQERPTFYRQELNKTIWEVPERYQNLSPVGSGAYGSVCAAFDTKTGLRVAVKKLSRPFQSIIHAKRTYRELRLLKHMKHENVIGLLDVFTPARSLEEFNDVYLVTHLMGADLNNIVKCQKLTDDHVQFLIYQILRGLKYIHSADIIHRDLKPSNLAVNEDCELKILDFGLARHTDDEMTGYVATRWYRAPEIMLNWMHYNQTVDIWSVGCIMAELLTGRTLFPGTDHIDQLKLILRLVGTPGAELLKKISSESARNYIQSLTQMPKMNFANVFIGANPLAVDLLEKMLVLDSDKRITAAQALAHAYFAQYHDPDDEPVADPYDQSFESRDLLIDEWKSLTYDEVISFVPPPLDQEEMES
Procedure, shortened: as §1

MAPKAPK3 = target: T6, MAPKAPK3 (Homo sapiens, UniProt Q16644); conditions: derived from % inhibition at 1 μM
T6 construct: purchased
T6 sequence (Q16644 whole entry, species assumed): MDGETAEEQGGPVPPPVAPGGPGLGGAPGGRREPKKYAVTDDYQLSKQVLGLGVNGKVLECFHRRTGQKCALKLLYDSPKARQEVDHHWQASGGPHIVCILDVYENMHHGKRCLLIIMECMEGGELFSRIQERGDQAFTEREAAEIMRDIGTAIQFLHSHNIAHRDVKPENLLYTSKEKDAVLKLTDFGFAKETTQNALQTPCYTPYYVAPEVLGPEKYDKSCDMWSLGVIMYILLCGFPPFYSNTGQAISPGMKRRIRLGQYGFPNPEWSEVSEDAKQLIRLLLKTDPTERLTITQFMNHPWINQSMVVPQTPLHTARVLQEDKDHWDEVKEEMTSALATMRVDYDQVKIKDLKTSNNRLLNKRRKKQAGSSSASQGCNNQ
Procedure, shortened: as §1

MKNK2 = target: T7, MKNK2 (Homo sapiens, UniProt Q9HBH9); conditions: derived from % inhibition at 1 μM
T7 construct: purchased
T7 sequence (Q9HBH9 whole entry, species assumed): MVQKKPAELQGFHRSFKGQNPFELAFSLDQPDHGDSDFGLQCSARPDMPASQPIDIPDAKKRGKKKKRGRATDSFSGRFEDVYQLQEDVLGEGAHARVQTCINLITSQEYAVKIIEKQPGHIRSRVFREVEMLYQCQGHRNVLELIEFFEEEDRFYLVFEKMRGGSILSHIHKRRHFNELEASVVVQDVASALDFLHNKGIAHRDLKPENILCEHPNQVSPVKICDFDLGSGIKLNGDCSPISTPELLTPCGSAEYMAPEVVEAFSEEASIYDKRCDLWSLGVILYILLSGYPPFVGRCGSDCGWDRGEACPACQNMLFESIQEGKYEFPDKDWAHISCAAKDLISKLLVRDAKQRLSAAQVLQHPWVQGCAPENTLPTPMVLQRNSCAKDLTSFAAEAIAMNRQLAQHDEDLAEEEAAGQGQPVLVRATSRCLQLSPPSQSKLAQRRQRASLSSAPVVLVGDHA
Procedure, shortened: as §1

NEK2 (Nek2A) = target: T8, NEK2 (Nek2A) (Homo sapiens, UniProt P51955); conditions: for IC50: derived from % inhibition at 1 μM
T8 construct: purchased
T8 sequence (P51955 1-445): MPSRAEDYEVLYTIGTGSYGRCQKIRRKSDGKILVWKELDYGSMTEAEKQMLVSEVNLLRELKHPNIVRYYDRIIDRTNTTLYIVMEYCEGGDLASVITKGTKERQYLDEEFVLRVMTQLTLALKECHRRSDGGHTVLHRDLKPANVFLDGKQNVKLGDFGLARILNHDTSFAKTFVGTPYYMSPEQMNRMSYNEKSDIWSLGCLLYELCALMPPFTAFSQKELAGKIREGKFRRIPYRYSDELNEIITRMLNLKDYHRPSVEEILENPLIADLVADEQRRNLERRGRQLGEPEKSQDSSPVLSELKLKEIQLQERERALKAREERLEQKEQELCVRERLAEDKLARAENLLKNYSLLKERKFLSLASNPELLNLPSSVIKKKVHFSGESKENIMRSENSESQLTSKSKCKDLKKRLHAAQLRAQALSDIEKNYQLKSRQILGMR
Procedure, shortened: as §1

PAK6 = target: T9, PAK6 (Homo sapiens, UniProt Q9NQU5); conditions: derived from % inhibition at 1 μM
T9 construct: purchased
T9 sequence (Q9NQU5 whole entry, species assumed): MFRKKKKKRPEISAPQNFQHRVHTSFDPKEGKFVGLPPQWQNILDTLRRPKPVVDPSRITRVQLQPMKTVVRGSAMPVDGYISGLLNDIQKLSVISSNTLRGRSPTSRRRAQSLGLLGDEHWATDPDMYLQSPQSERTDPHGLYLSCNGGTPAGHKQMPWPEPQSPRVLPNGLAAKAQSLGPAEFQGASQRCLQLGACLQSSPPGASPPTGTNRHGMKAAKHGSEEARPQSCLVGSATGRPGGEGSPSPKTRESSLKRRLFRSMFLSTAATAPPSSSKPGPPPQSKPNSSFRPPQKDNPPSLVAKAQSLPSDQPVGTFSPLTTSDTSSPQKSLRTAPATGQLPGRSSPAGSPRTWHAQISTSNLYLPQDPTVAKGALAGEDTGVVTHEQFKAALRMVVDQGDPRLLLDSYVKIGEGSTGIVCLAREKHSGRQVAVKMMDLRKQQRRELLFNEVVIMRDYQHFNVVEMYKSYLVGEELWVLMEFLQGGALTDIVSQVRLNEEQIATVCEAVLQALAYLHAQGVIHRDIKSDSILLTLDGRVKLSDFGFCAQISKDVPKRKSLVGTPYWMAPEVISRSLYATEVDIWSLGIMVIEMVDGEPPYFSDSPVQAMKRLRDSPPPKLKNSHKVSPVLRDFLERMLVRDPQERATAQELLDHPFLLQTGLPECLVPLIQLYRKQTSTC
Procedure, shortened: as §1

RPS6KA1 = target: T10, RPS6KA1 (Homo sapiens, UniProt Q15418); conditions: derived from % inhibition at 1 μM
T10 construct: purchased
T10 sequence (Q15418 whole entry, species assumed): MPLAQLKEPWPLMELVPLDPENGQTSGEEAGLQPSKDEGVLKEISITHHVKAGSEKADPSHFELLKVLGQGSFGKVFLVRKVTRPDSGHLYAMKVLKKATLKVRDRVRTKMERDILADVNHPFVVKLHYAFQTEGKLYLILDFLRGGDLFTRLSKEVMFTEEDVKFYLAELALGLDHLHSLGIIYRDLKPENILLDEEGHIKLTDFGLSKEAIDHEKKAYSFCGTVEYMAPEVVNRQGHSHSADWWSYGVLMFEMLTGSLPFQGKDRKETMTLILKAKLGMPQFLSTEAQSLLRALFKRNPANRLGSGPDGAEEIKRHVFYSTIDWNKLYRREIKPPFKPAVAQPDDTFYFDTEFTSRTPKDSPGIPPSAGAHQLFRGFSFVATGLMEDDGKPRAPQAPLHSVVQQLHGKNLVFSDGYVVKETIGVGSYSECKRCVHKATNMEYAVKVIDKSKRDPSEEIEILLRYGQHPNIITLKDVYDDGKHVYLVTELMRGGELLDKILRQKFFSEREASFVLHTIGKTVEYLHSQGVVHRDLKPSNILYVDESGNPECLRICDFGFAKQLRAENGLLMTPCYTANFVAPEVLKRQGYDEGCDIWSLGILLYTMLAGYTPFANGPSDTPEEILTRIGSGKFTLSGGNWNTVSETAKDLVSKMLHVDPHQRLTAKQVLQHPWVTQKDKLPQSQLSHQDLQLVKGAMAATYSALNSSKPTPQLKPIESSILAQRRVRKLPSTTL
Procedure, shortened: as §1

STK3 = target: T11, STK3 (Homo sapiens, UniProt Q13188); conditions: derived from % inhibition at 1 μM
T11 construct: purchased
T11 sequence (Q13188 1-491): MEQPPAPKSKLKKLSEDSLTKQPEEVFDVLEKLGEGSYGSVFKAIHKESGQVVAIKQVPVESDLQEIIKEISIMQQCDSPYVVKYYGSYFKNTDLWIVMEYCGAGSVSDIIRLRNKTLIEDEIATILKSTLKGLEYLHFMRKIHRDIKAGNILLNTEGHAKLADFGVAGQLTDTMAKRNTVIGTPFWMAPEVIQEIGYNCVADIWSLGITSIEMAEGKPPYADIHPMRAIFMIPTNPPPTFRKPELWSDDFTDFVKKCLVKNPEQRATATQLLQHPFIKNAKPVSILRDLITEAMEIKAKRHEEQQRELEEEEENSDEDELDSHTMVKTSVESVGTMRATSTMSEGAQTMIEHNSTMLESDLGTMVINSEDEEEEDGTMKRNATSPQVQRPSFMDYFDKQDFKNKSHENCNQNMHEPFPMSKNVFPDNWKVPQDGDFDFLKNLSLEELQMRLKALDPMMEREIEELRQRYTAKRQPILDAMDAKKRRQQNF
Procedure, shortened: as §1

T1 sequence (P31751 whole entry, species assumed): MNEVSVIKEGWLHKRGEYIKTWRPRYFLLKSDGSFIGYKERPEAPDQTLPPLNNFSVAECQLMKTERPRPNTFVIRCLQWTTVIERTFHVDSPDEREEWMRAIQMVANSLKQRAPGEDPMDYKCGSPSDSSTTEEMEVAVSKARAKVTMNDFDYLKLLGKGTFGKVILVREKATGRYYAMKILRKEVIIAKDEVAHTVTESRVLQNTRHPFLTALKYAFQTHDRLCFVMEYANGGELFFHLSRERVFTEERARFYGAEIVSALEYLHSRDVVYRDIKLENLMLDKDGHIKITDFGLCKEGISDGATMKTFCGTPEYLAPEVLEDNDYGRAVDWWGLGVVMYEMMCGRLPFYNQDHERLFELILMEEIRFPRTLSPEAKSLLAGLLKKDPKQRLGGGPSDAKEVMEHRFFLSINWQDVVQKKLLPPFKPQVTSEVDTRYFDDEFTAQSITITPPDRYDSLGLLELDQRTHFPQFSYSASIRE

| Structure (SMILES) | IC50 (AKT2) | IC50 (IKBKE) | IC50 (INSR) | IC50 (IRAK4) | IC50 (MAPK14) | IC50 (MAPKAPK3) | IC50 (MKNK2) | IC50 (NEK2 (Nek2A)) | IC50 (PAK6) | IC50 (RPS6KA1) | IC50 (STK3) | remaining activity at 1 µM (NEK2 (Nek2A); read-out: residual kinase activity Nek2A) |
| --- | --- | --- | --- | --- | --- | --- | --- | --- | --- | --- | --- | --- |
| CC(C)(C)OC(=O)Nc1nc(-c2ccncc2)sc1C#CCN1CCOCC1 [Compound A25, tert-butyl[5-(3-morpholin-4-ylprop-1-ynyl)-2-pyridin-4-ylthiazol-4-yl]-carbamate] | 1 to 10 µM | 1 to 10 µM | > 1 µM | 10 to 100 µM | 10 to 100 µM | 10 to 100 µM | > 1 µM | 1 to 10 µM | 10 to 100 µM | 10 to 100 µM | > 1 µM |  |
| c1ccc(Cc2c[nH]c3ncsc23)cc1 [Compound A7, 6-benzyl-4H-pyrrolo[2,3-d]thiazole] | > 1 µM | 10 to 100 µM | > 1 µM | > 1 µM | 1 to 10 µM | > 1 µM | > 1 µM | > 1 µM | > 1 µM | 10 to 100 µM | 1 to 10 µM |  |
| Nc1ncsc1C#Cc1cnc2[nH]ccc2c1 [Compound A22, 5-(1H-pyrrolo[2,3-b]pyridin-5-ylethynyl)thiazol-4-ylamine] | > 1 µM | > 1 µM | 10 to 100 µM | > 1 µM | 10 to 100 µM | > 1 µM | > 1 µM | > 1 µM | 10 to 100 µM | > 1 µM | 10 to 100 µM |  |
| Nc1ncsc1C#Cc1cccc(O)c1 [Compound A27, 3-(4-aminothiazol-5-ylethynyl)phenol] | 1 to 10 µM | > 1 µM | 10 to 100 µM | 10 to 100 µM | 1 to 10 µM | 10 to 100 µM | > 1 µM | 1 to 10 µM | 10 to 100 µM | > 1 µM | 1 to 10 µM | 59% |
| CC(C)(C)OC(=O)Nc1ncsc1C#CCN1C(=O)c2ccccc2C1=O [Compound A26, tert-butyl{5-[3-(1,3-dioxo-1,3-dihydroisoindol-2-yl)prop-1-ynyl]-thiazol-4-yl}carbamate] | > 1 µM | 10 to 100 µM | 1 to 10 µM | 10 to 100 µM | 10 to 100 µM | > 1 µM | 10 to 100 µM | 1 to 10 µM | > 1 µM | > 1 µM | > 1 µM |  |
